Patent US5688767A, “Treatment of endotoxin-associated disorders with cationic peptides” (priority 1996, dated 1997)
Values after ≈ are worked out from the molar mass of the structure shown. Like-named read-outs stand apart in the source and are kept apart here.

How the values were obtained:
S. typhimurium = assay: microbe, parasite or virus in culture; format: cell-based, Salmonella typhimurium
Protocol: (§1) The minimum inhibitory concentrations of (MIC) of CEME, CEMA and melittin were determined for a number of different bacteria (Table 2). Briefly, cells were grown overnight at 37° C. in LB-S (Luria broth without any salt supplement) and diluted one in 10,000 in the same medium to give concentrations of about 10^4 to 10^5 CFU/ml. The broth dilutions were set up in a 96 well microtiter plate by putting 200 μl of LB-S containing the initial concentration of antibiotic or compound in column 1 and 100 μl of the same medium in columns 2-12. The compounds were diluted by taking 100 μl of broth from column 1 and mixing it with column 2, resulting in a one in two dilution. This was continued to column 10. Finally, 10 μl of bacteria were pipetted into columns 1-11, and the plates incubated overnight at 37° C. The next day the plates were scored for growth in the wells, and the MIC determined.
(§2) Bacteria included the Bort strain of E. coli (Bortolussi, et al., Inf. Immun., 25:293, 1979) that was originally derived from a case of neonatal meningitis, and which is therefore considered a relevant pathogenic strain to study, and the 0111:B4 strain of E. coli (kindly provided by Dr. D. Morrison) which is a standard source of endotoxin. (Kelly, et al., Inf. Immun., 59:4491, 1991). In addition, P. aeruginosa PA01 strain H103, P. aeruginosa M2, P. aeruginosa K799, Eschericha coli UB 1005, Enterobacter cloacae 218S, Salmonella typhimurium MS7953s, Klebsiella pneumoniae ATCC 13883, Xanthomonas maltophilia ATCC 13637, and Acinetobacter calcoacetious 8193 were employed. LPS was obtained from E. coli Bort by the technique of Westphal and Jann, (Westphal, et al., Acad. Press, Inc. NY., 5:83) and from P. aeruginosa H103 by the method of Darveau and Hancock, (Darveau, et al., J. Bacteriol, 155:831, […]). E. coli 0111:B4 LPS was purchased from Sigma.

[1] = MIC of common antibiotics in the presence of sub-MIC levels of cationic peptides; format: cell-based
Text: The ability of the cationic peptides to work synergistically was examined by determining the MIC values for some commonly used antibiotics in the presence of sub-MIC levels of cationic peptides (Table 4). […] This may be due to the high membrane permeabilizing activity of CEMA (see below). However, the peptides did lower the MIC of polymyxin B, possibly due to the fact that they are all taken up by the same pathway and are therefore aiding each other's uptake. Of interest is the influence that melittin has on the MIC of polymyxin B, given the weak membrane permeabilizing activity of melittin.

S. aureus = assay: microbe, parasite or virus in culture; format: cell-based, Staphylococcus aureus
Protocol: as §1

E. coli = assay: microbe, parasite or virus in culture; format: cell-based, Escherichia coli
Protocol: as §1, §2

E. cloacae = assay: microbe, parasite or virus in culture; format: cell-based, Enterobacter cloacae
Protocol: as §1, §2

P. aeruginosa = assay: microbe, parasite or virus in culture; format: cell-based, Pseudomonas aeruginosa
Protocol: as §1, §2

P. AERUGINOSA H309 = assay: microbe, parasite or virus in culture; format: cell-based, Pseudomonas aeruginosa
Protocol: as §1, with “Briefly,” for “The minimum inhibitory concentrations of (MIC) of CEME, CEMA and melittin were determined for a number of different bacteria (Table 2). Briefly,”

[2] = tested on: P. aeruginosa H309 Whole Cells; assay: DPx binding inhibition using whole cells; set-up: species or system Pseudomonas aeruginosa; details: DPx at 90-100% binding saturation, average of at least three trials
Protocol: For DPx binding inhibition assays using whole cells instead of purified LPS, H309 cells were prepared the same way as for the lysozyme lysis assay. The assay consisted of 10 μl of cells at an OD600 of 0.5, 990 μl of 5 mM HEPES pH 7.2 and 5 mM KCN, and the concentration of DPx that gave 90-100% binding saturation. […] Compounds were titrated in, and I50 values were determined as described above.

P. aeruginosa H103 LPS = assay: Dansyl polymyxin (DPx) displacement from purified LPS; format: binding, Pseudomonas aeruginosa; details: 2.5 μM DPx, 3 μg/ml LPS, 5 mM HEPES pH 7.2, average of at least three trials
Protocol: In this assay, DPx was incubated with LPS to saturate the binding sites and then, while polycationic compounds are titrated into the reaction, displacement of the DPx was monitored by the decrease in fluorescence (FIG. 9). P. aeruginosa LPS was isolated as previously described (Darveau, et al., J of Bacteriology, 155:831, 1983) Dansyl polymyxin was synthesized as described by Schindler, et al., B. Antimicrobial Agents and Chemo, 8:95, 1975.
The method of Moore, et al., (Antimicrobial Agents and Chemo., 29:496, 1987), was used to test how much DPx was needed to saturate the binding sties on LPS. Briefly, 5 μl samples of 100 μM DPx were titrated sequentially into 1 ml of 3 μg/ml of LPS until a maximum fluorescence was reached. The fluorescence was measured in a Perkin-Elmer 650-10S fluorescence spectrophotometer with an excitation wavelength of 340 nm and an emission wavelength of 485 nm using slit widths of 5 nm. […] For the binding inhibition assays (Moore, et al., Antimicrobial Agents and Chemo., 29:496, 1987), 2.5 μM DPx was added to 3 μg/ml of H103 LPS in 5 mM HEPES pH 7.2. The test compounds were added 5 μl at a time and the decrease in fluorescence due to displacement of the DPx from the LPS was recorded.
When the data was plotted as a double reciprocal plot (FIG. 10), the X-intercept provided a value that is equal to -1/I50.

In the case of `CC(C)(O/N=C(\C(=O)N[C@@H]1C(=O)N2C(C(=O)[O-])=C(C[n+]3ccccc3)CS[C@H]12)c1csc(N)n1)C(=O)O` [Ceftazidime, ceftazidime], the MIC (S. typhimurium; Salmonella enterica, TYPHIMURIUM) is reported as 0.25 mg/L (≈ 0.457 µM), the MIC (S. typhimurium; strain C590, Defensin sensitive) is reported as 0.25 mg/L (≈ 0.457 µM) and the “MIC in the presence of” value ([1]; CEMA 0.7 μg/ml) is reported as 2 μg/m1. For the same molecule, the “MIC in the presence of” value ([1]; CEMA 1.4 μg/ml) was 2 μg/m1, the “MIC in the presence of” value ([1]; CEME 0.6 μg/ml) was 4 μg/m1 and the “MIC in the presence of” value ([1]; CEME 1.2 μg/ml) was 4 μg/m1. The “MIC in the presence of” value ([1]; Melittin 2 μg/ml) was 4 μg/m1, the “MIC in the presence of” value ([1]; Melittin 4 μg/ml) was 2 μg/m1 and the “MIC in the presence of” value ([1]; No peptide) was 4 μg/m1. It also gave an MIC (S. aureus; Staphylococcus aureus, strain RN4220, Methicillin sensitive) of 8 mg/L (≈ 14.6 µM), an MIC (S. aureus; Staphylococcus aureus, strain SAP0017, Methicillin resistant) greater than 16 mg/L and an MIC (E. coli; Escherichia coli, SC9251 / SC9252, strain SC9251, Parent of SC9252) of 0.12 mg/L (≈ 0.22 µM). The MIC (E. coli; Escherichia coli, SC9252, strain SC9252, Polymyxin resistant) was 0.5 mg/L (≈ 0.915 µM), the MIC (E. coli; Escherichia coli, strain DC2, Polymyxin sensitive) was 0.06 mg/L (≈ 0.11 µM) and the MIC (E. coli; Escherichia coli, strain UB1005, Parent of DC2 (Table 2)) was 0.5 mg/L (≈ 0.915 µM). For the same molecule, the MIC (E. cloacae; Enterobacter cloacae, strain 218R1, β-lactam resistant) was greater than 16 mg/L, the MIC (E. cloacae; Enterobacter cloacae, strain 218S, Parent of 218R1 (Table 2)) was 0.5 mg/L (≈ 0.915 µM) and the MIC (P. aeruginosa; Pseudomonas aeruginosa, strain H187, Parent of H188, read-out: MIC) was 2 mg/L (≈ 3.66 µM). It also gave an MIC (P. aeruginosa; Pseudomonas aeruginosa, strain H188, Antibiotic sensitive, read-out: MIC) of 0.03 mg/L (≈ 0.0549 µM), an MIC (P. aeruginosa; Pseudomonas aeruginosa, strain H309, Wildtype, read-out: MIC) of 1 mg/L (≈ 1.83 µM) and an MIC (P. AERUGINOSA H309; Pseudomonas aeruginosa, +5 mM Mg^++, read-out: MIC) of 2 mg/L (≈ 3.66 µM). For the same molecule, the MIC (P. AERUGINOSA H309; Pseudomonas aeruginosa, +80 mM Na^+, read-out: MIC) was 2 mg/L (≈ 3.66 µM) and the MIC (P. AERUGINOSA H309; Pseudomonas aeruginosa, No addition, read-out: MIC) was 1 mg/L (≈ 1.83 µM).

In the case of `C[C@@H](O)[C@H]1C(=O)N2C(C(=O)O)=C(SCCN=CN)C[C@H]12` [Imipenem, imipenem], the “MIC in the presence of” value ([1]; CEMA 0.7 μg/ml) is reported as 4 μg/m1, the “MIC in the presence of” value ([1]; CEMA 1.4 μg/ml) is reported as 2 μg/m1 and the “MIC in the presence of” value ([1]; CEME 0.6 μg/ml) is reported as 4 μg/m1. The “MIC in the presence of” value ([1]; CEME 1.2 μg/ml) was 4 μg/m1, the “MIC in the presence of” value ([1]; Melittin 2 μg/ml) was 4 μg/m1 and the “MIC in the presence of” value ([1]; Melittin 4 μg/ml) was 4 μg/m1. For the same molecule, the “MIC in the presence of” value ([1]; No peptide) was 4 μg/m1.

With `CN(C)[C@@H]1C(O)=C(C(N)=O)C(=O)[C@@]2(O)C(O)=C3C(=O)c4c(O)cccc4[C@@](C)(O)[C@H]3C[C@@H]12` [Tetracycline, tetracycline] the “MIC in the presence of” value ([1]; CEMA 0.7 μg/ml) was 8 μg/m1, the “MIC in the presence of” value ([1]; CEMA 1.4 μg/ml) was 4 μg/m1 and the “MIC in the presence of” value ([1]; CEME 0.6 μg/ml) was 8 μg/m1. For the same molecule, the “MIC in the presence of” value ([1]; CEME 1.2 μg/ml) was 8 μg/m1, the “MIC in the presence of” value ([1]; Melittin 2 μg/ml) was 8 μg/m1 and the “MIC in the presence of” value ([1]; Melittin 4 μg/ml) was 8 μg/m1. For the same molecule, the “MIC in the presence of” value ([1]; No peptide) was 8 μg/m1.

With gentamicin the “I50, Value in μg/ml” value [2] was 36.92 ± 9.12 µg/mL, the “I50, Value in μg/ml” value (P. aeruginosa H103 LPS) was 18.16 ± 6.77 µg/mL and the IC50 (P. aeruginosa H103 LPS; read-out: I50, Value in μM) was 19.2 ± 7.18 µM. It also gave an MIC (S. aureus; strain RN4220, Methicillin sensitive) of 2 mg/L, an MIC (S. aureus; strain SAP0017, Methicillin resistant) greater than 8 mg/L and an MIC (E. coli; strain UB1005, Parent of DC2 (Table 2)) of 1 mg/L. It also gave an MIC (E. cloacae; strain 218S, Parent of 218R1 (Table 2)) of 0.5 mg/L, an MIC (P. aeruginosa; strain H187, Parent of H188) of 1 mg/L and an MIC (P. aeruginosa; strain H188, Antibiotic sensitive) of 0.25 mg/L. It also gave an MIC (P. aeruginosa; strain H309, Wildtype) of 1 mg/L, an MIC (P. AERUGINOSA H309; +5 mM Mg^++) of 4 mg/L and an MIC (P. AERUGINOSA H309; +80 mM Na^+) of 1 mg/L. The MIC (P. AERUGINOSA H309; No addition) was 1 mg/L.
